In patent publication US20240279230A1, “CRYSTALLINE FORMS OF A HER2 INHIBITOR” (Boehringer Ingelheim International GmbH, priority 2022, published 2024):
Entries after “also recorded” stand apart in the source; their conditions may differ.

Key:
Assay type in all cases: physicochemical
[1] = Dynamic Vapor Sorption (DVS) sorption isotherms, hygroscopic behaviour; conditions: for Hygroscopicity: DVS classification; for Δm (0-80%), moisture absorbed at 80% RH / Δm (0-90%), maximum water uptake: DVS, 25.0 ±1.0° C.; for Δm (0-90%), maximum water uptake: up to 90% RH; for Phase change during DVS experiment: RH cycled twice 0% to 90% to 0%; for Hysteresis: between sorption and desorption curves
Method: The methodology for this can be as follows. The mass of the solids is monitored as the relative humidity (RH) was deliberately changed. The RH is cycled twice from 0% to 90% to 0% in 10% steps. The temperature during measurement is kept constantly at (25.0 ±1.0° C.) Each step is held until mass stability was achieved. A camera inside the instrument captured an image at the conclusion of each stage, allowing for the observation of any visual changes in the solid form during the analysis.

[2] = Temperature stress tests with form I, form II and form VI, PXRD; conditions: 6 h at 150° C. (closed vial)
[3] = Thermogravimetric Analysis (TGA); conditions: 20° C./min
Method: The methodology for this can be as follows. Solid compounds (˜5 mg) are placed in an aluminium pan and sealed. The instrument used for the analysis is a TA Instruments TGA 550. The same sample lots from DSC testing are used for TGA testing. Processing is completed using TRIOS software.

[4] = Polymorphic stability of form III and form IV under stress storage, PXRD; conditions: 21 days;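 further: open storage at 90 °C with 3% RH or 78% RH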
Method: A Bruker D2 Phaser X-Ray Diffractometer (XRD, EQ-SSRD-XRD-01) can be used for characterizing the samples. Raw results are evaluated using DIFFRAC.EVA (Bruker, V5.0) software. The Kα2 contribution was stripped, and a peak search was performed using peak search parameters (width 0.302 and threshold 1.0).
A test sample (approximately 0.3 g) is representatively subsampled into an agate-type mortar and pestle. Sample is ground for approximately one minute to achieve a fine homogenous powder. Sample is then transferred into a stainless-steel sample holder fitted with a zero-diffraction plate (ZDP). The sample holder is then levelled off with a glass slide to create a flat sample surface level with the sample holder.

[5] = Chemical stability of solid state forms under temperature/humidity stress, related substances by HPLC at 252 nm; parameters: Impurity I / Impurity A / Impurity B / Impurity C / Impurity D / Impurity E / Impurity F / Impurity G / Impurity H: unit not given here
Description: To do so, control samples are stored refrigerated in the presence of desiccant for the duration of the study and measured simultaneously with stressed samples by HPLC at a wavelength of 252 nm.

[6] = Control 1, stored refrigerated with desiccant
[7] = Control 2, stored refrigerated with desiccant
[8] = Control 3, stored refrigerated with desiccant

C=CC(=O)NC1CCN(c2ncc3ncnc(Nc4ccc(Oc5ccc6c(c5)ncn6C)c(C)c4)c3n2)CC1 [Form I, N-{1-[8-({3-methyl-4-[(1-methyl-1H-1,3-benzodiazol-5-yl)oxy]phenyl}amino)-[1,3]diazino[5,4-d]pyrimidin-2-yl]piperidin-4-yl}prop-2-enamide]
Hygroscopicity [1]: hygroscopic
Hygroscopicity ([1]; listed as form I): hygroscopic
Δm (0-80%), moisture absorbed at 80% RH [1]: 5.4 wt %
Δm (0-80%), moisture absorbed at 80% RH ([1]; listed as form I): 5.4 wt %
Δm (0-90%), maximum water uptake [1]: 7.3 wt %
Δm (0-90%), maximum water uptake ([1]; listed as form I): 7.3 wt %
Phase change during DVS experiment [1]: no irreversible phase changes
Hysteresis [1]: yes
Hysteresis ([1]; listed as form I): significant hysteresis
PXRD of stressed sample [2]: Form I
PXRD of stressed sample ([2]; listed as form I): remained unchanged; also recorded: polymorphically stable
TGA change in mass ([3]; Decomposition): 47.883%
TGA end ([3]; Decomposition): 463.12 °C
TGA onset ([3]; Decomposition): 419.14 °C

C=CC(=O)NC1CCN(c2ncc3ncnc(Nc4ccc(Oc5ccc6c(c5)ncn6C)c(C)c4)c3n2)CC1 [Form IV, N-{1-[8-({3-methyl-4-[(1-methyl-1H-1,3-benzodiazol-5-yl)oxy]phenyl}amino)-[1,3]diazino[5,4-d]pyrimidin-2-yl]piperidin-4-yl}prop-2-enamide]
Change in visual appearance during the humidity cycles ([1]; DVS camera images): No change in the visual appearance
Hygroscopicity [1]: slightly hygroscopic
Hygroscopicity ([1]; listed as form IV): slightly hygroscopic
Δm (0-80%), moisture absorbed at 80% RH [1]: 0.4 wt %
Δm (0-80%), moisture absorbed at 80% RH ([1]; listed as form IV): 0.4 wt %
Δm (0-90%), maximum water uptake [1]: 0.5 wt %
Δm (0-90%), maximum water uptake ([1]; listed as form IV): 0.5 wt %
Phase change during DVS experiment [1]: no indication of irreversible phase conversion or hydrate formation; also recorded: no irreversible phase changes
Hysteresis [1]: no
Hysteresis ([1]; listed as form IV): lack of hysteresis
Polymorphic stability by PXRD ([4]; open storage 90° C./3% RH): stable and conformed to form IV reference standard; also recorded: neither form underwent phase changes
Polymorphic stability by PXRD ([4]; open storage 90° C./78% RH): stable and conformed to form IV reference standard; also recorded: neither form underwent phase changes
Color change after stressing ([5]; 60-90° C., 3-79% RH, up to 21 days): No color changes
Impurity A ([5]; 60° C./75% RH, 17 days): 0.111
Impurity B ([5]; 60° C./75% RH, 17 days): 0.008
Impurity C ([5]; 60° C./75% RH, 17 days): 0.066
Impurity D ([5]; 60° C./75% RH, 17 days): 0.014
Impurity E ([5]; 60° C./75% RH, 17 days): 0.074
Impurity F ([5]; 60° C./75% RH, 17 days): 0.012
Impurity G ([5]; 60° C./75% RH, 17 days): 0.037
Impurity H ([5]; 60° C./75% RH, 17 days): 0.132
Impurity I ([5]; 60° C./75% RH, 17 days): 0.012
Impurity A ([5]; 70° C./62% RH, 17 days): 0.113
Impurity B ([5]; 70° C./62% RH, 17 days): 0.010
Impurity C ([5]; 70° C./62% RH, 17 days): 0.065
Impurity D ([5]; 70° C./62% RH, 17 days): 0.022
Impurity E ([5]; 70° C./62% RH, 17 days): 0.069
Impurity F ([5]; 70° C./62% RH, 17 days): 0.013
Impurity G ([5]; 70° C./62% RH, 17 days): 0.038
Impurity H ([5]; 70° C./62% RH, 17 days): 0.133
Impurity I ([5]; 70° C./62% RH, 17 days): 0.012
Impurity A ([5]; 75° C./41% RH, 17 days): 0.113
Impurity B ([5]; 75° C./41% RH, 17 days): 0.010
Impurity C ([5]; 75° C./41% RH, 17 days): 0.072
Impurity D ([5]; 75° C./41% RH, 17 days): 0.015
Impurity E ([5]; 75° C./41% RH, 17 days): 0.078
Impurity F ([5]; 75° C./41% RH, 17 days): 0
Impurity G ([5]; 75° C./41% RH, 17 days): 0.027
Impurity H ([5]; 75° C./41% RH, 17 days): 0.129
Impurity I ([5]; 75° C./41% RH, 17 days): 0.010
Impurity A ([5]; 75° C./79% RH, 10 days): 0.103
Impurity B ([5]; 75° C./79% RH, 10 days): 0.010
Impurity C ([5]; 75° C./79% RH, 10 days): 0.065
Impurity D ([5]; 75° C./79% RH, 10 days): 0.017
Impurity E ([5]; 75° C./79% RH, 10 days): 0.073
Impurity F ([5]; 75° C./79% RH, 10 days): 0.016
Impurity G ([5]; 75° C./79% RH, 10 days): 0.038
Impurity H ([5]; 75° C./79% RH, 10 days): 0.130
Impurity I ([5]; 75° C./79% RH, 10 days): 0.012
Impurity A ([5]; 80° C./11% RH, 17 days): 0.109
Impurity B ([5]; 80° C./11% RH, 17 days): 0.009
Impurity C ([5]; 80° C./11% RH, 17 days): 0.073
Impurity D ([5]; 80° C./11% RH, 17 days): 0.013
Impurity E ([5]; 80° C./11% RH, 17 days): 0.086
Impurity F ([5]; 80° C./11% RH, 17 days): 0
Impurity G ([5]; 80° C./11% RH, 17 days): 0.033
Impurity H ([5]; 80° C./11% RH, 17 days): 0.126
Impurity I ([5]; 80° C./11% RH, 17 days): 0.011
Impurity A ([5]; 80° C./61% RH, 10 days): 0.111
Impurity B ([5]; 80° C./61% RH, 10 days): 0.008
Impurity C ([5]; 80° C./61% RH, 10 days): 0.065
Impurity D ([5]; 80° C./61% RH, 10 days): 0.021
Impurity E ([5]; 80° C./61% RH, 10 days): 0.070
Impurity F ([5]; 80° C./61% RH, 10 days): 0.015
Impurity G ([5]; 80° C./61% RH, 10 days): 0.039
Impurity H ([5]; 80° C./61% RH, 10 days): 0.131
Impurity I ([5]; 80° C./61% RH, 10 days): 0.011
Impurity A ([5]; 90° C./3% RH, 17 days): 0.104
Impurity B ([5]; 90° C./3% RH, 17 days): 0.011
Impurity C ([5]; 90° C./3% RH, 17 days): 0.070
Impurity D ([5]; 90° C./3% RH, 17 days): 0.018
Impurity E ([5]; 90° C./3% RH, 17 days): 0.087
Impurity F ([5]; 90° C./3% RH, 17 days): 0.008
Impurity G ([5]; 90° C./3% RH, 17 days): 0.050
Impurity H ([5]; 90° C./3% RH, 17 days): 0.125
Impurity I ([5]; 90° C./3% RH, 17 days): 0.011
Impurity A ([5]; 90° C./41% RH, 10 days): 0.112
Impurity B ([5]; 90° C./41% RH, 10 days): 0.010
Impurity C ([5]; 90° C./41% RH, 10 days): 0.065
Impurity D ([5]; 90° C./41% RH, 10 days): 0.021
Impurity E ([5]; 90° C./41% RH, 10 days): 0.076
Impurity F ([5]; 90° C./41% RH, 10 days): 0.011
Impurity G ([5]; 90° C./41% RH, 10 days): 0.044
Impurity H ([5]; 90° C./41% RH, 10 days): 0.127
Impurity I ([5]; 90° C./41% RH, 10 days): 0.012
Impurity A ([5]; 90° C./78% RH, 17 days): 0.098
Impurity B ([5]; 90° C./78% RH, 17 days): 0.011
Impurity C ([5]; 90° C./78% RH, 17 days): 0.068
Impurity D ([5]; 90° C./78% RH, 17 days): 0.015
Impurity E ([5]; 90° C./78% RH, 17 days): 0.080
Impurity F ([5]; 90° C./78% RH, 17 days): 0.014
Impurity G ([5]; 90° C./78% RH, 17 days): 0.043
Impurity H ([5]; 90° C./78% RH, 17 days): 0.125
Impurity I ([5]; 90° C./78% RH, 17 days): 0.010
Impurity A [5, 6]: 0.102
Impurity B [5, 6]: 0.009
Impurity C [5, 6]: 0.064
Impurity D [5, 6]: 0.011
Impurity E [5, 6]: 0.074
Impurity F [5, 6]: 0.015
Impurity G [5, 6]: 0.037
Impurity H [5, 6]: 0.129
Impurity I [5, 6]: 0.012
Impurity A [5, 7]: 0.091
Impurity B [5, 7]: 0.009
Impurity C [5, 7]: 0.064
Impurity D [5, 7]: 0.012
Impurity E [5, 7]: 0.070
Impurity F [5, 7]: 0.013
Impurity G [5, 7]: 0.032
Impurity H [5, 7]: 0.130
Impurity I [5, 7]: 0.012
Impurity A [5, 8]: 0.114
Impurity B [5, 8]: 0.009
Impurity C [5, 8]: 0.070
Impurity D [5, 8]: 0.013
Impurity E [5, 8]: 0.071
Impurity F [5, 8]: 0
Impurity G [5, 8]: 0.023
Impurity H [5, 8]: 0.129
Impurity I [5, 8]: 0.012
Increase in related substances ([5]; accelerated stress conditions, up to 21 days at 90° C./78% RH): no significant increase in any related substance
Chemical stability in the solid state ([5]; up to 21 days at 90° C./78% RH): chemically very stable
TGA change in mass ([3]; Decomposition): 49.938%
TGA onset ([3]; Decomposition): 420.14 °C
TGA change in mass ([3]; Small mass loss event): 1.285%
TGA end ([3]; Small mass loss event): 243.82 °C
TGA onset ([3]; Small mass loss event): 224.60 °C
TGA change in mass ([3]; Small mass loss event, listed as form IV): around 1%
